Key:
LDHC = details: cited from earlier work
HCC-1500 cells = assay: Sensitivity to olaparib or cisplatin (72 h treatment; Annexin V/PI, clonogenic assay); format: cell-based; details: 14 days of culture post-treatment (72 h)
MDA-MB-468 cells [1] = assay: Western blot of cleaved caspase 3 after olaparib or cisplatin treatment; format: cell-based; details: MDA-MB-468, after treatment
Text: (§1) FIG. 6A: Annexin V/PI flow cytometric quantification of apoptosis after 72 hrs of treatment with olaparib or cisplatin. FIG. 6B depicts a western blot of cleaved caspase 3 protein expression with β-actin as loading control. Numbers under each lane represent mean densitometry values (arbitrary units) for cleaved caspase 3 signal (high exposure blot) from three independent experiments normalized to β-actin. FIG. 6C: Representative immunofluorescence microscopy images of phospho-γ-H2AX (red) and DAPI-stained nuclei (100× magnification). Yellow arrows indicate early apoptotic cells and white arrows indicate late apoptotic cells. […] All statistical analysis comparing shCTRL vs shLDHC performed using Student's t-test.
(§2) DNA damage repair inhibitors and DNA damage inducing agents, including the Poly ADP-ribose polymerase (PARP)-inhibitor olaparib and cisplatin, are widely used anti-cancer drugs with particular benefit to patients with defects in DDR pathways such as BRCA1/2-positive or ‘BRCAness’ basal breast cancer patients.

MDA-MB-468 cells [2] = assay: Phospho-γ-H2AX immunofluorescence after olaparib or cisplatin treatment; format: cell-based; details: similar levels in shCTRL and shLDHC treated cells
Text: as §1, §2

[3] = system: shLDHC breast cancer cells (MDA-MB-468, BT-549, HCC-1500); assay: Annexin V/PI apoptosis after 72 hrs of treatment with olaparib or cisplatin; format: cell-based
Text: as §1
Supplemental FIG. 5A depicts a representative Annexin V/PI flow cytometry plots of MDA-MB-468 cells after 72 hrs of treatment with olaparib or cisplatin. Supplemental FIG. 5B depicts Annexin V/PI flow cytometric quantification of BT-549 cells after 72 hrs of treatment with olaparib or cisplatin. Supplemental FIG. 5C: Annexin V/PI flow cytometric quantification of HCC-1500 cells after 72 hrs of treatment with olaparib or cisplatin. […] Statistical analysis comparing shCTRL vs shLDHC performed using Student's t-test. […]

[4] = system: shLDHC breast cancer cells (MDA-MB-468, BT-549, MDA-MB-231, HCC-1500); assay: Clonogenic assay at 14 days of culture post-treatment (72 h) with olaparib or cisplatin; format: cell-based; details: cell-line dependent

Structure (SMILES)	affinity for LDHC (LDHC)	selectivity towards LDHC (LDHC; vs other lactate dehydrogenase enzymes (LDHA, LDHB))	clonogenic ability of shCTRL and shLDHC cells (HCC-1500 cells)	expression of cleaved caspase 3 in shLDHC cells (MDA-MB-468 cells [1])	DNA damage after treatment (MDA-MB-468 cells [2])	apoptosis in giant shLDHC cells compared to shCTRL cells [3]	colony formation ability of shLDHC cells further compromised, compared to shCTRL treated cells [4]
CCNC(=O)C(=O)O [N-Ethyl oxamate]	high affinity						
CCCNC(=O)C(=O)O [N-propyl oxamate]		high degree of selectivity					
N.N.[Cl][Pt][Cl] [cisplatin]			completely abolished	augmented	significant increase	further induced	greater than 4 fold
O=C(c1cc(Cc2n[nH]c(=O)c3ccccc23)ccc1F)N1CCN(C(=O)C2CC2)CC1 [olaparib]				augmented	significant increase	further induced	about 2 fold
